US20120129928A1, “Chlorine-Free Liquid Microbicide Treatment” (University of Georgia Research Foundation, Inc., priority 2010, published 2012)
Where “and” joins values, the source holds several entries; their conditions need not be identical. Equal values may be shown once. Read-outs that look alike come from different tables or passages of the source.

How the values were obtained:
various yeast species = assay: Effect of levulinic acids plus SDS at 21° C. on various yeast species; format: cell-based; conditions: for Yeast counts at min: 1: 1 min; for Yeast counts at min: 2: 2 min; for Yeast counts at min: 5: 5 min; for Yeast counts at min: 10: 10 min; for Yeast counts at min: 20: 20 min; for Yeast counts at min: 30: 30 min; for Yeast counts at min: 60: 60 min
L. monocytogenes = format: cell-based, Listeria monocytogenes; conditions: 21° C.
S. enteritidis = assay: Reduction of S. enteritidis in water treated with organic acids and SDS; format: cell-based, Salmonella enteritidis
[1] = tested on: spores of Bacillus anthracis Sterne; format: cell-based, Bacillus anthracis Sterne (34F2)
S. typhimurium DT 104 = format: cell-based, Salmonella typhimurium DT104; conditions: water, 21° C.
yeasts and molds = assay: Yeast and mold (Y&M) counts on produce and in treatment solution, 4-L tank
aerobic plate count = assay: Aerobic plate counts (APC) on produce treated in a 4-L tank
S. typhimurium = S. typhimurium counts on produce (apples, celery, onions, cantaloupes) and in treatment solution, 4-L tank

In the case of `CC(=O)CCC(=O)O` [2% levulinic acid], the “Yeast counts at min: 1” value (various yeast species; Zygosaccharomyces bailii) is reported as 5.4 log CFU/ml, the “Yeast counts at min: 2” value (various yeast species; Zygosaccharomyces bailii) is reported as 5.5 log CFU/ml and the “Yeast counts at min: 5” value (various yeast species; Zygosaccharomyces bailii) is reported as 5.4 log CFU/ml. The “Yeast counts at min: 10” value (various yeast species; Zygosaccharomyces bailii) was 5.4 log CFU/ml, the “Yeast counts at min: 20” value (various yeast species; Zygosaccharomyces bailii) was 5.4 log CFU/ml and the “Yeast counts at min: 30” value (various yeast species; Zygosaccharomyces bailii) was 5.4 log CFU/ml. For the same compound, the “Yeast counts at min: 60” value (various yeast species; Zygosaccharomyces bailii) was 5.3 log CFU/ml.

`CCCCCCCCCCCCOS(=O)(=O)[O-].[Na+]` [SDS, sodium dodecyl sulfate] gave a L. monocytogenes counts (L. monocytogenes; 0 min) of 6.6 ± 0.3 log CFU/ml, a L. monocytogenes counts (L. monocytogenes; 2 min) of 6.4 ± 0.1 log CFU/ml and a L. monocytogenes counts (L. monocytogenes; 5 min) of 6.0 ± 0.1 log CFU/ml. It also gave a L. monocytogenes counts (L. monocytogenes; 10 min) of 5.0 ± 0.3 log CFU/ml, a L. monocytogenes counts (L. monocytogenes; 20 min) of 3.8 ± 0.2 log CFU/ml and a L. monocytogenes counts (L. monocytogenes; 30 min) of 3.3 ± 0.1 log CFU/ml. The Salmonella reduction (S. enteritidis) was “did not reduce”, the S. enteritidis counts (S. enteritidis; sulfate) was 7.1 log CFU/ml and 7.0 log CFU/ml and 7.2 log CFU/ml and the “CFU % recovery (as compared to control flask F)” value (“CFU % recovery” below) ([1]; Experiment A3, 10 min) was 65%. For the same compound, the “CFU % recovery” value ([1]; Experiment A3, 45 min) was 94%, the “CFU % recovery” value ([1]; Experiment A3, 180 min) was 95% and the “CFU % recovery” value ([1]; Experiment A4 absent heat, RT, 0 min) was 85%. For the same compound, the “CFU % recovery” value ([1]; Experiment A4 absent heat, RT, 1 h) was 90%, the “CFU % recovery” value ([1]; Experiment A4 absent heat, RT, 2 h) was 87% and the “CFU % recovery” value ([1]; Experiment A4 absent heat, RT, 3 h) was 98%. The “CFU % recovery” value ([1]; Experiment A4 absent heat, RT, 4 h) was 79%, the “CFU % recovery” value ([1]; Experiment A4 with heat, 65° C., 0 min) was 48% and the “CFU % recovery” value ([1]; Experiment A4 with heat, 65° C., 1 h) was 53%. The “CFU % recovery” value ([1]; Experiment A4 with heat, 65° C., 2 h) was 74%, the “CFU % recovery” value ([1]; Experiment A4 with heat, 65° C., 3 h) was 68% and the “CFU % recovery” value ([1]; Experiment A5 with heat, 65° C., 0 min) was 71%. For the same compound, the “CFU % recovery” value ([1]; Experiment A5 with heat, 65° C., 1 h) was 69%, the “CFU % recovery” value ([1]; Experiment A5 with heat, 65° C., 2 h) was 53% and the “CFU % recovery” value ([1]; Experiment A5 with heat, 65° C., 3 h) was 71%. The “CFU % recovery” value ([1]; Experiment A5 with heat, 65° C., 4 h) was 54%, the “S. typhimurium DT 104 counts” value (S. typhimurium DT 104; 0 min) was 7.0 log CFU/ml and the “S. typhimurium DT 104 counts” value (S. typhimurium DT 104; 1 min) was 7.0 log CFU/ml. The “S. typhimurium DT 104 counts” value (S. typhimurium DT 104; 2 min) was 6.8 log CFU/ml, the “S. typhimurium DT 104 counts” value (S. typhimurium DT 104; 5 min) was 6.9 log CFU/ml and the “S. typhimurium DT 104 counts” value (S. typhimurium DT 104; 10 min) was 6.8 log CFU/ml. The “S. typhimurium DT 104 counts” value (S. typhimurium DT 104; 20 min) was 6.9 log CFU/ml, the “S. typhimurium DT 104 counts” value (S. typhimurium DT 104; 30 min) was 6.9 log CFU/ml and the “S. typhimurium DT 104 counts” value (S. typhimurium DT 104; 60 min) was 6.9 log CFU/ml.

In the case of `CC(=O)O` [0.5% acetic acid, acetic acid], the S. enteritidis counts (S. enteritidis; water, 21° C., 0 min) is reported as 7.1 log CFU/ml, the S. enteritidis counts (S. enteritidis; water, 21° C., 2 min) is reported as 7.0 log CFU/ml and the S. enteritidis counts (S. enteritidis; water, 21° C., 5 min) is reported as 6.8 log CFU/ml. For the same compound, the S. enteritidis counts (S. enteritidis; water, 21° C., 10 min) was 6.7 log CFU/ml, the S. enteritidis counts (S. enteritidis; water, 21° C., 20 min) was 6.6 log CFU/ml and the S. enteritidis counts (S. enteritidis; water, 21° C., 30 min) was 6.5 log CFU/ml.

With `CCCCCCCCCCCCOS(=O)(=O)[O-].[Na+]` [1.0% SDS] the “Yeast counts at min: 1” value (various yeast species; Candida magnoliae) was 3.5 log CFU/ml, the “Yeast counts at min: 2” value (various yeast species; Candida magnoliae) was 3.3 log CFU/ml and the “Yeast counts at min: 5” value (various yeast species; Candida magnoliae) was 3.2 log CFU/ml. The “Yeast counts at min: 10” value (various yeast species; Candida magnoliae) was 3.2 log CFU/ml, the “Yeast counts at min: 20” value (various yeast species; Candida magnoliae) was 2.7 log CFU/ml and the “Yeast counts at min: 30” value (various yeast species; Candida magnoliae) was 3.0 log CFU/ml. For the same compound, the “Yeast counts at min: 60” value (various yeast species; Candida magnoliae) was 3.1 log CFU/ml, the “Yeast counts at min: 1” value (various yeast species; Debaryomyces hansenii) was 4.5 log CFU/ml and the “Yeast counts at min: 2” value (various yeast species; Debaryomyces hansenii) was 4.1 log CFU/ml. For the same compound, the “Yeast counts at min: 5” value (various yeast species; Debaryomyces hansenii) was 4.5 log CFU/ml, the “Yeast counts at min: 10” value (various yeast species; Debaryomyces hansenii) was 4.4 log CFU/ml and the “Yeast counts at min: 20” value (various yeast species; Debaryomyces hansenii) was 4.5 log CFU/ml. For the same compound, the “Yeast counts at min: 30” value (various yeast species; Debaryomyces hansenii) was 4.5 log CFU/ml, the “Yeast counts at min: 60” value (various yeast species; Debaryomyces hansenii) was 4.4 log CFU/ml and the “Yeast counts at min: 1” value (various yeast species; Geotrichum candidum) was 3.8 log CFU/ml. For the same compound, the “Yeast counts at min: 2” value (various yeast species; Geotrichum candidum) was 3.3 log CFU/ml, the “Yeast counts at min: 5” value (various yeast species; Geotrichum candidum) was 3.5 log CFU/ml and the “Yeast counts at min: 10” value (various yeast species; Geotrichum candidum) was 3.7 log CFU/ml. The “Yeast counts at min: 20” value (various yeast species; Geotrichum candidum) was 3.5 log CFU/ml, the “Yeast counts at min: 30” value (various yeast species; Geotrichum candidum) was 3.4 log CFU/ml and the “Yeast counts at min: 60” value (various yeast species; Geotrichum candidum) was 3.3 log CFU/ml. The “Yeast counts at min: 1” value (various yeast species; Saccharomyces cerevisiae) was 2.4 log CFU/ml, the “Yeast counts at min: 2” value (various yeast species; Saccharomyces cerevisiae) was 2.6 log CFU/ml and the “Yeast counts at min: 5” value (various yeast species; Saccharomyces cerevisiae) was 2.3 log CFU/ml. The “Yeast counts at min: 10” value (various yeast species; Saccharomyces cerevisiae) was 2.8 log CFU/ml, the “Yeast counts at min: 20” value (various yeast species; Saccharomyces cerevisiae) was 2.7 log CFU/ml and the “Yeast counts at min: 30” value (various yeast species; Saccharomyces cerevisiae) was 2.3 log CFU/ml. The “Yeast counts at min: 60” value (various yeast species; Saccharomyces cerevisiae) was 2.4 log CFU/ml, the “Yeast counts at min: 1” value (various yeast species; Zygosaccharomyces bailii) was 4.7 log CFU/ml and the “Yeast counts at min: 2” value (various yeast species; Zygosaccharomyces bailii) was 4.6 log CFU/ml. For the same compound, the “Yeast counts at min: 5” value (various yeast species; Zygosaccharomyces bailii) was 4.6 log CFU/ml, the “Yeast counts at min: 10” value (various yeast species; Zygosaccharomyces bailii) was 4.6 log CFU/ml and the “Yeast counts at min: 20” value (various yeast species; Zygosaccharomyces bailii) was 4.5 log CFU/ml. For the same compound, the “Yeast counts at min: 30” value (various yeast species; Zygosaccharomyces bailii) was 4.5 log CFU/ml and the “Yeast counts at min: 60” value (various yeast species; Zygosaccharomyces bailii) was 4.4 log CFU/ml.

`CC(=O)CCC(=O)O` [2.0% levulinic acids] was tested, and the “Yeast counts at min: 1” value (various yeast species; Candida magnoliae) was 5.9 log CFU/ml, the “Yeast counts at min: 2” value (various yeast species; Candida magnoliae) was 5.9 log CFU/ml and the “Yeast counts at min: 5” value (various yeast species; Candida magnoliae) was 5.9 log CFU/ml. For the same compound, the “Yeast counts at min: 10” value (various yeast species; Candida magnoliae) was 6.0 log CFU/ml, the “Yeast counts at min: 20” value (various yeast species; Candida magnoliae) was 6.0 log CFU/ml and the “Yeast counts at min: 30” value (various yeast species; Candida magnoliae) was 5.9 log CFU/ml. For the same compound, the “Yeast counts at min: 60” value (various yeast species; Candida magnoliae) was 5.8 log CFU/ml.

With “acidified sodium chlorite [50 ppm acidified sodium chlorite]” the “reduction of yeast and mold counts on onions” value (yeasts and molds) was less than 0.5 log CFU per onion, the “reduction of APC on onions” value (aerobic plate count) was less than 0.5 log CFU per onion and the “reduction of S. typhimurium on onions” value (S. typhimurium) was less than 0.5 log CFU per onion.
